Numbers after ± are expanded uncertainties.
Assays:
[1] = Liquid; for viscosity / speed of sound: 101 kPa; for viscosity: Capillary tube (Ostwald / Ubbelohde) method; for speed of sound: Linear variable-path acoustic interferometer; for mass density: 101.33 kPa, Pycnometric method
[2] = xn = mol fraction of the nth substance listed; conditions: 101 kPa, Liquid, x2 = 0; for viscosity: Capillary tube (Ostwald / Ubbelohde) method; for excess molar volume: Direct dilatometry; for speed of sound: Linear variable-path acoustic interferometer

With `Cc1ccc(C)cc1` [1,4-dimethylbenzene] as the molecule, how does the viscosity ([1]; 303.15 K) read?
Its viscosity is 0.566 ± 0.016 mPa·s.

What about the speed of sound ([1]; 303.15 K) of the same molecule?
Its speed of sound is 1283.7 ± 5.2 m/s.

What about the mass density ([1]; 303.15 K) of the same molecule?
The mass density was 852.3 ± 2.3 kg/m3.

And the viscosity ([1]; 308.15 K)?
Its viscosity is 0.537 ± 0.015 mPa·s.

And the speed of sound ([1]; 308.15 K)?
Its speed of sound is 1271 ± 5.2 m/s.

What about the mass density ([1]; 308.15 K) of the same molecule?
Its mass density is 847.9 ± 2.3 kg/m3.

And the viscosity ([1]; 313.15 K)?
The viscosity was 0.513 ± 0.015 mPa·s.

What about the speed of sound ([1]; 313.15 K) of the same molecule?
The speed of sound was 1260 ± 5.2 m/s.

What about the mass density ([1]; 313.15 K) of the same molecule?
The mass density was 843.6 ± 2.2 kg/m3.

And the “vapor or sublimation pressure” value ([1]; 410 K)?
Its value is 97.3 ± 4.9 kPa.

What does the source list for `CCCCCCCCCC` [decane] + Cc1ccc(C)cc1?
viscosity ([2]; 303.15 K): 0.786 ± 0.021 mPa·s; excess molar volume ([2]; 303.15 K): 0 ± 6e-09 m3/mol; speed of sound ([2]; 303.15 K): 1210 ± 5.2 m/s; viscosity ([2]; 308.15 K): 0.717 ± 0.019 mPa·s; excess molar volume ([2]; 308.15 K): 0 ± 6e-09 m3/mol; speed of sound ([2]; 308.15 K): 1189 ± 5.2 m/s; viscosity ([2]; 313.15 K): 0.694 ± 0.019 mPa·s; excess molar volume ([2]; 313.15 K): 0 ± 6e-09 m3/mol; speed of sound ([2]; 313.15 K): 1175.3 ± 5.2 m/s

Which results are given for `CCCCCCCCCC` [decane]?
viscosity ([1]; 303.15 K): 0.786 ± 0.021 mPa·s; speed of sound ([1]; 303.15 K): 1210 ± 5.2 m/s; mass density ([1]; 303.15 K): 722.3 ± 1.9 kg/m3; viscosity ([1]; 308.15 K): 0.717 ± 0.019 mPa·s; speed of sound ([1]; 308.15 K): 1189 ± 5.2 m/s; mass density ([1]; 308.15 K): 718.2 ± 1.9 kg/m3; viscosity ([1]; 313.15 K): 0.694 ± 0.019 mPa·s; speed of sound ([1]; 313.15 K): 1175.3 ± 5.2 m/s; mass density ([1]; 313.15 K): 714.7 ± 1.9 kg/m3; vapor or sublimation pressure ([1]; 445.7 K): 97.3 ± 4.9 kPa

From the NIST ThermoML archive (doi:10.1021/je0501585)
